Like-named read-outs stand apart in the source and are kept apart here.
Experiments:
MDA-MB-231/ATCC = experiment: NCI in vitro cytotoxicity, SRB assay; details: Homo sapiens
NCI-H23 = experiment: NCI in vitro cytotoxicity, SRB assay; details: Homo sapiens
Text: (§1) The results are expressed as percent of cell growth determined relative to that of untreated control cells (Table 2).

RPMI-8226 = experiment: NCI in vitro cytotoxicity, SRB assay; details: Homo sapiens
EKVX = experiment: NCI in vitro cytotoxicity, SRB assay; details: Homo sapiens
SNB-75 = experiment: NCI in vitro cytotoxicity, SRB assay; details: Homo sapiens
[1] = test system: Ovarian cancer cell lines; experiment: NCI in vitro cytotoxicity, panel average
CNS cancer cell lines = experiment: NCI in vitro cytotoxicity, panel average; details: average of the panel's cell lines
HCT-15 = experiment: NCI in vitro cytotoxicity, SRB assay; details: Homo sapiens
DU-145 = experiment: NCI in vitro cytotoxicity, SRB assay; details: Homo sapiens
OVCAR-3 = experiment: NCI in vitro cytotoxicity, SRB assay; details: Homo sapiens
IGROV1 = experiment: NCI in vitro cytotoxicity, SRB assay; details: Homo sapiens, IGROV-1
MCF7 = experiment: NCI in vitro cytotoxicity, SRB assay; details: Homo sapiens
NCI/ADRRES = experiment: NCI in vitro cytotoxicity, SRB assay; details: Homo sapiens, NCI/ADR-RES
[2] = test system: forty nine human tumour cell lines; experiment: NCI in vitro cytotoxicity screen, SRB assay, 48 h continuous exposure
UACC-62 = experiment: NCI in vitro cytotoxicity, SRB assay; details: Homo sapiens
SF-539 = experiment: NCI in vitro cytotoxicity, SRB assay; details: Homo sapiens
SK-MEL-5 = experiment: NCI in vitro cytotoxicity, SRB assay; details: Homo sapiens
786-0 = experiment: NCI in vitro cytotoxicity, SRB assay; details: Homo sapiens
K-562 = experiment: NCI in vitro cytotoxicity, SRB assay; details: Homo sapiens, K562
MDA-MB-435 = experiment: NCI in vitro cytotoxicity, SRB assay; details: Homo sapiens
NCI-H460 = experiment: NCI in vitro cytotoxicity, SRB assay; details: Homo sapiens
Text: as §1

LOX IMVI = experiment: NCI in vitro cytotoxicity, SRB assay; details: Homo sapiens
SW-620 = experiment: NCI in vitro cytotoxicity, SRB assay; details: Homo sapiens
Renal cancer cell lines = experiment: NCI in vitro cytotoxicity, panel average
OVCAR-5 = experiment: NCI in vitro cytotoxicity, SRB assay; details: Homo sapiens
HL-60(TB) = experiment: NCI in vitro cytotoxicity, SRB assay; assay type: cell-based; details: Homo sapiens; Leukemia HL-60(TB)
MDA-MB-468 = experiment: NCI in vitro cytotoxicity, SRB assay; details: Homo sapiens
T-47D = experiment: NCI in vitro cytotoxicity, SRB assay; details: Homo sapiens, T47D
SK-MEL-28 = experiment: NCI in vitro cytotoxicity, SRB assay; details: Homo sapiens
M14 = experiment: NCI in vitro cytotoxicity, SRB assay; details: Homo sapiens
SK-OV-3 = experiment: NCI in vitro cytotoxicity, SRB assay; details: Homo sapiens
CAKI-1 = experiment: NCI in vitro cytotoxicity, SRB assay; details: Homo sapiens
A549/ATCC = experiment: NCI in vitro cytotoxicity, SRB assay; details: Homo sapiens
[3] = test system: Prostate cancer cell lines; experiment: NCI in vitro cytotoxicity, panel average
SF-268 = experiment: NCI in vitro cytotoxicity, SRB assay; details: Homo sapiens
HCT-116 = experiment: NCI in vitro cytotoxicity, SRB assay; details: Homo sapiens
Melanoma cell lines = experiment: NCI in vitro cytotoxicity, panel average
OVCAR-4 = experiment: NCI in vitro cytotoxicity, SRB assay; details: Homo sapiens
Breast cancer cell lines = experiment: NCI in vitro cytotoxicity, panel average
[4] = test system: Non-small-cell lung cancer cell lines; experiment: NCI in vitro cytotoxicity, panel average
ACHN = experiment: NCI in vitro cytotoxicity, SRB assay; details: Homo sapiens
MOLT-4 = experiment: NCI in vitro cytotoxicity, SRB assay; details: Homo sapiens
U251 = experiment: NCI in vitro cytotoxicity, SRB assay; details: Homo sapiens, U-251
SNB-19 = experiment: NCI in vitro cytotoxicity, SRB assay; details: Homo sapiens
A498 = experiment: NCI in vitro cytotoxicity, SRB assay; details: Homo sapiens
SN12C = experiment: NCI in vitro cytotoxicity, SRB assay; details: Homo sapiens
HCC-2998 = experiment: NCI in vitro cytotoxicity, SRB assay; details: Homo sapiens
Text: as §1

UACC-257 = experiment: NCI in vitro cytotoxicity, SRB assay; details: Homo sapiens
KM12 = experiment: NCI in vitro cytotoxicity, SRB assay; details: Homo sapiens
SF-295 = experiment: NCI in vitro cytotoxicity, SRB assay; details: Homo sapiens
NCI-H522 = experiment: NCI in vitro cytotoxicity, SRB assay; details: Homo sapiens
Text: as §1

Colon cancer cell lines = experiment: NCI in vitro cytotoxicity, panel average
HS 578T = experiment: NCI in vitro cytotoxicity, SRB assay; details: Homo sapiens
CCRF-CEM = experiment: NCI in vitro cytotoxicity, SRB assay; details: Homo sapiens
Leukemia cell lines = experiment: NCI in vitro cytotoxicity, panel average
PC-3 = experiment: NCI in vitro cytotoxicity, SRB assay; details: Homo sapiens
OVCAR-8 = experiment: NCI in vitro cytotoxicity, SRB assay; details: Homo sapiens
HOP-92 = experiment: NCI in vitro cytotoxicity, SRB assay; details: Homo sapiens
Text: as §1

UO-31 = experiment: NCI in vitro cytotoxicity, SRB assay; details: Homo sapiens
[5] = Homo sapiens, read-out: Log10 LC50 (converted)

COc1cc(C2NC(=O)c3ccccc3N2)ccc1OCCCCCOc1c(OC)cc(C2=NOC(c3cc(OC)c(OC)c(OC)c3)C2)cc1OC (centres unmarked) [Compound 7d, 2-[4-(5-{2,6-Dimethoxy-4-[5-(3,4,5-trimethoxy-phenyl)-4,5-dihydro-isoxazol-3-yl]-phenoxy}-pentyloxy)-3-methoxy-phenyl]-2,3-dihydro-1H-quinazolin-4-one]
GI50 (MDA-MB-231/ATCC): 14.7 µM | GI50 (NCI-H23): 0.38 µM | GI50 (RPMI-8226): 0.06 µM | GI50 (EKVX): 0.36 µM | GI50 (SNB-75): 34.2 µM | CC50 [1, 5]: ≥ 100 µM | Log10 GI50 ([1]; Ovarian, average of the panel's cell lines): −5.20 mol/L | Log10 GI50 (CNS cancer cell lines): −4.66 mol/L | GI50 (HCT-15): 15.9 µM | GI50 (DU-145): 22.4 µM | GI50 (OVCAR-3): 12.4 µM | GI50 (IGROV1): 0.32 µM | GI50 (MCF7): 0.45 µM | GI50 (NCI/ADRRES): 10.6 µM | GI50 ([2]; Homo sapiens, read-out: GI50 value): < 40 µM | GI50 ([2]; Homo sapiens, read-out: Log10 GI50 mean graph midpoint (MG_MID) (converted)): 5.25 µM | CC50 ([2]; Homo sapiens, read-out: Log10 LC50 mean graph midpoint (MG_MID) (converted)): 95.5 µM | in vitro cytotoxicity (in words) ([2]; cancer cell lines): significant cytotoxicity | Log10 TGI mean graph midpoint (MG_MID) ([2]; human tumour cell lines): −4.18 | GI50 (UACC-62): 0.99 µM | GI50 (SF-539): 21.2 µM | GI50 (SK-MEL-5): 0.18 µM | GI50 (786-0): 31.8 µM | GI50 (K-562): 0.37 µM | GI50 (MDA-MB-435): 0.6 µM | GI50 (NCI-H460): 15.1 µM | GI50 (LOX IMVI): 19.5 µM | GI50 (SW-620): 21 µM | CC50 (Renal cancer cell lines; [5]): ≥ 100 µM | Log10 GI50 (Renal cancer cell lines; Renal, average of the panel's cell lines): −4.72 mol/L | GI50 (OVCAR-5): 31.7 µM | GI50 (HL-60(TB)): 12.2 µM | GI50 (MDA-MB-468): 0.08 µM | GI50 (T-47D): 0.3 µM | GI50 (SK-MEL-28): 3.24 µM | GI50 (M14): 19.8 µM | GI50 (SK-OV-3): 38.5 µM | GI50 (CAKI-1): 18 µM | GI50 (A549/ATCC): 15.7 µM | CC50 [3, 5]: ≥ 100 µM | Log10 GI50 ([3]; Prostate, average of the panel's cell lines): −5.39 mol/L | GI50 (SF-268): 20.2 µM | GI50 (HCT-116): 0.26 µM | CC50 (Melanoma cell lines; [5]): ≥ 100 µM | Log10 GI50 (Melanoma cell lines; Melanoma, average of the panel's cell lines): −5.69 mol/L | GI50 (OVCAR-4): 0.49 µM | Log10 GI50 (Breast cancer cell lines; Breast, average of the panel's cell lines): −5.82 mol/L | CC50 (Breast cancer cell lines; [5]): ≥ 100 µM | CC50 [4, 5]: ≥ 100 µM | Log10 GI50 ([4]; Non-small-cell lung, average of the panel's cell lines): −4.97 mol/L | GI50 (ACHN): 0.95 µM | GI50 (MOLT-4): 0.68 µM | GI50 (U251): 25.2 µM | GI50 (SNB-19): 16.6 µM | GI50 (A498): 19.3 µM | GI50 (SN12C): 39.1 µM | GI50 (HCC-2998): 0.06 µM | GI50 (UACC-257): 0.29 µM | GI50 (KM12): 10.4 µM | GI50 (SF-295): 16.4 µM | GI50 (NCI-H522): 27.4 µM | Log10 GI50 (Colon cancer cell lines; Colon, average of the panel's cell lines): −5.17 mol/L | CC50 (Colon cancer cell lines; [5]): ≥ 100 µM | GI50 (HS 578T): 15 µM | GI50 (CCRF-CEM): 0.62 µM | CC50 (Leukemia cell lines; [5]): 70.8 µM | Log10 GI50 (Leukemia cell lines; Leukemia, average of the panel's cell lines): −6.17 mol/L | GI50 (PC-3): 0.74 µM | GI50 (OVCAR-8): 25.7 µM | GI50 (HOP-92): 15.8 µM | GI50 (UO-31): 21.4 µM
